Several values for one entry are separate records, joined by “and”; a condition that tells them apart may be missing. Equal entries are not always repeated.
Columns and labels:
P. aeruginosa = test: Antibacterial agar well diffusion; assay type: cell-based, Pseudomonas aeruginosa (ATCC27853); conditions: Pseudomonas aeruginosa, 24 h, 6.25 mg/mL per well, 37 °C
Text: (§1) The antibacterial assay was done for all compounds (1–6) as described in previous studies. The mean number of viable organisms per milliliter of stock suspensions containing Escherichia coli (ATCC25922), Pseudomonas aeruginosa (ATCC27853), Salmonella typhi (ATCC0650), and Staphylococcus aureus (NCTC25953) was uncovered using the surface viable counting method. Preparations of suspensions containing approximately 108–109 colony forming units (CFU) per milliliter were made. Aseptic nutritional agar was formulated and transferred onto petri dishes. Cultures of bacteria were uniformly distributed on agar surface using sterile brush sticks. Five wells, each with a diameter of 6 mm, were made in each plate using a sterile borer. Afterwards, a concentration of 6.25 mg/mL of each component was applied to separate wells. Cephradine, a readily accessible antibiotic, was employed as a reference standard at an equivalent concentration. Following sealing, the agar dishes were incubated at a controlled temperature of 37 °C for a period of 24 h. The zone of inhibition in the plates was determined, which represents the inhibition of bacterial growth. Each sample zone of inhibition diameter was evaluated, and the antibacterial effectiveness of each drug was quantified according to the mean diameter of the inhibition zone (in millimetres).

[1] = biological target: T1, acetylcholinesterase (AChE) (Electrophorus electricus, UniProt O42275); test: biochemical; conditions: for inhibition at 62.5 µg/mL / inhibition at 125 µg/mL / inhibition at 250 µg/mL / inhibition at 500 µg/mL / inhibition at 1000 µg/mL: read-out: AChE Percent inhibition
T1 construct: The AChE was derived from the electric eel, while BChE was obtained from equineserum; from tissue; host or cells: electric eel (tissue not specified)
Protocol: (§2) This assay employed two enzymes, namely acetylcholinesterase (AChE) and butyryl cholinesterase (BChE). The AChE was derived from the electric eel, while BChE was obtained from equineserum. The synthesized compounds were dissolved in phosphate buffer (0.1 M, pH 8.0). The enzymes AChE (518 U/mg) and BChE (7–16 U/mg) were diluted in a 0.1 M phosphate buffer to achieve concentrations of 0.03 U/mL and 0.01 U/mL, respectively. Preparations of ATchI (0.5 mM), DTNB (0.2273 mM), and BTchI (0.5 mM) were made in distilled water and stored at a low temperature of 8 °C. […] The solution was heated to 30 °C for 15 min, followed by the gradual addition of the substrate. Absorbance of the heated sample at 412 nm was measured using a double beam spectrophotometer. […] The percentage activity (A) and inhibition of the enzyme were determined by applying the rate of absorption as a function of time (V=ΔAbs/Δt) using the following equation (Equation (2)).(2) %Inhibition=V/Vmax×100 Where V = enzyme inhibition activity of products and Vmax = enzyme activity without test of product.

[2] = DPPH free radical scavenging assay; assay type: biochemical
Protocol: (§3) In accordance with the procedure described in the literature, the ABTS activity assay was applied to evaluate the free radical scavenging capabilities of the synthesized compounds (1–6). ABTS solution was prepared by mixing 7 mM ABTS and 2.45 mM potassium persulfate and was then placed for 16 h under dark at room temperature. A methanol dilution was performed on the solution to achieve an absorbance of 0.706 ± 0.001 at 734 nm before starting the assay. To quantify the assay, 3 mL of the ABTS solution has been added to different concentrations (ranging from 62.5 to 1000 μg/mL) of every compound (300 μL) that were dissolved in methanol. Then after 1 min of incubation, the absorbance was continuously measured for 5 min. To confirm precision, all experiments were conducted in triplicate. The antioxidant capacities of the compounds were assessed with gallic acid as a reference, and the ability to remove free radicals was calculated as a percentage for each compound employing Equation.1 as presented below. Additionally, the DPPH free radical scavenging method was employed to assess the antioxidant activity of compounds (1–6), in accordance with a widely recognized procedure documented in existing literature. Concentrations ranging from 62.5 to 1000 μg/mL of compounds (1–6), dissolved in methanol, were introduced into a 2 mL solution of DPPH (0.002 % in methanol). The resulting solutions were kept in the dark at room temperature for a duration of 30 min. The amount of light absorbed by the solutions was then determined using a UV/vis spectrophotometer at a wavelength of 517 nm. The investigations were performed three times, using the exact protocol described for the ABTS scavenging assay. Afterwards, the antioxidant capabilities of each molecule were assessed using calculation.(1) Scavengingactivity(%)=A−B/A×100
(§4) Where, A = absorbance of ABTS/DPPH and B = absorbance of solution containing ABTS/DPPH and test samples.

E. coli = test: Antibacterial agar well diffusion; assay type: cell-based, Escherichia coli (ATCC25922); conditions: Escherichia coli, 24 h, 6.25 mg/mL per well, 37 °C
Text: as §1

S. typhi = test: Antibacterial agar well diffusion; assay type: cell-based, Salmonella typhi (ATCC0650); conditions: Salmonella enterica, TYPHI, 24 h, 6.25 mg/mL per well, 37 °C
Text: as §1

[3] = biological target: T2, butyryl cholinesterase (BChE) (Equus caballus, UniProt P81908); test: Anticholinesterase assay (Elman's test), BChE; assay type: biochemical; conditions: for inhibition at 62.5 µg/mL / inhibition at 125 µg/mL / inhibition at 250 µg/mL / inhibition at 500 µg/mL / inhibition at 1000 µg/mL: read-out: BChE Percent inhibition
T2 construct: The AChE was derived from the electric eel, while BChE was obtained from equineserum; from tissue; host or cells: equine serum
Protocol: as §2

S. flexenari = test: Antibacterial agar well diffusion; assay type: cell-based; conditions: 24 h, 6.25 mg/mL per well, 37 °C
[4] = ABTS free radical scavenging assay; assay type: biochemical
Protocol: as §3, §4

T1 sequence (O42275 24-633): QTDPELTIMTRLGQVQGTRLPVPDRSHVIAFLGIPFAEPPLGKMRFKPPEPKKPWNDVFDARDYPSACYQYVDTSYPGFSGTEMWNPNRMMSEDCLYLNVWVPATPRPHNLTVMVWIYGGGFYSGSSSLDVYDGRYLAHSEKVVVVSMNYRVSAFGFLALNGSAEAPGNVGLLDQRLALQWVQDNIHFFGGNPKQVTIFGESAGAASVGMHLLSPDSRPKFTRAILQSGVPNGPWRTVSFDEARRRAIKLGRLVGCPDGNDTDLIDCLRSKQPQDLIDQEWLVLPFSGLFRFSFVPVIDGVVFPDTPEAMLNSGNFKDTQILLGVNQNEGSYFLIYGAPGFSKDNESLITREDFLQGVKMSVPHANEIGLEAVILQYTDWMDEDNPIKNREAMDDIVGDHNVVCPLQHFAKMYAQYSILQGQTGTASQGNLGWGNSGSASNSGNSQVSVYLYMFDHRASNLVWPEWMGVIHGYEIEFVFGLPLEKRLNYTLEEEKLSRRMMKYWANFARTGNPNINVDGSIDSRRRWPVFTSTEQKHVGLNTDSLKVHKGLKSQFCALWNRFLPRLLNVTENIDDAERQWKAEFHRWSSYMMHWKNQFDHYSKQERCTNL
T2 sequence (P81908 whole entry): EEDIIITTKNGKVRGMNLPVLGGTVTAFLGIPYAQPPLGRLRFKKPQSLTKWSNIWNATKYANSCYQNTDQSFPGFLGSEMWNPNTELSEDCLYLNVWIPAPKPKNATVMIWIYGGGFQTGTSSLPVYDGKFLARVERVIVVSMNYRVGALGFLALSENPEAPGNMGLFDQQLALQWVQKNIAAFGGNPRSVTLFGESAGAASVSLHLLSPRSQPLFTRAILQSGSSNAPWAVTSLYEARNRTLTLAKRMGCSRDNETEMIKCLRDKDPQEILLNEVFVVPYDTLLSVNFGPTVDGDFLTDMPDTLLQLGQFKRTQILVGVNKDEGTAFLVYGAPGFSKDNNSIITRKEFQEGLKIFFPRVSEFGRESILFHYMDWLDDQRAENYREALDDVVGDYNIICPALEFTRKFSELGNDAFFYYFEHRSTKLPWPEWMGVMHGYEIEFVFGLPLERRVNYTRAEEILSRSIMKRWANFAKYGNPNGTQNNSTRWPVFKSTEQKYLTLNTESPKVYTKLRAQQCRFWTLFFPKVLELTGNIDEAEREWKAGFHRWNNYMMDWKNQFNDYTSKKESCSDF

Structure (SMILES)	zone of inhibition at 6250 µg/mL (P. aeruginosa) [mm]	IC50 [1]	inhibition at 62.5 µg/mL [1] [%]	inhibition at 125 µg/mL [1] [%]	inhibition at 250 µg/mL [1] [%]	inhibition at 500 µg/mL [1] [%]	inhibition at 1000 µg/mL [1] [%]	DPPH IC50 [2] [µg/mL]	DPPH %inhibition ([2]; 62.5 μg/mL) [%]	DPPH %inhibition ([2]; 125 μg/mL) [%]	DPPH %inhibition ([2]; 250 μg/mL) [%]	DPPH %inhibition ([2]; 500 μg/mL) [%]	DPPH %inhibition ([2]; 1000 μg/mL) [%]	zone of inhibition at 6250 µg/mL (E. coli) [mm]	zone of inhibition at 6250 µg/mL (S. typhi) [mm]	inhibition at 62.5 µg/mL [3] [%]	inhibition at 125 µg/mL [3] [%]	inhibition at 250 µg/mL [3] [%]	inhibition at 500 µg/mL [3] [%]	inhibition at 1000 µg/mL [3] [%]	other results
S=C(Nc1ccccc1)Nc1cccc(Cl)c1 [Compound 6, 1-(3-chlorophenyl)-3-phenylthiourea]	15.5	329 µM	47.61 ± 0.43	52.7 ± 1.01	57.8 ± 1.5	62.84 ± 0.3	67.51 ± 0.54	90.30	43.49 ± 2.72	53.66 ± 1.17	61.47 ± 2.74	76.24 ± 2.61	82.19 ± 2.32	8.5	9.5	51.61 ± 0.43	55.1 ± 0.6	61.2 ± 1.4	66.8 ± 7.85	71.6 ± 1.63	IC50 [3]: 216 µM; zone of inhibition at 6250 µg/mL (S. flexenari): 10.5 mm; ABTS IC50 [4]: 86.03 µg/mL; ABTS %inhibition ([4]; 62.5 μg/mL): 44.27 ± 1.53%; ABTS %inhibition ([4]; 125 μg/mL): 53.26 ± 2.76%; ABTS %inhibition ([4]; 250 μg/mL): 63.09 ± 1.34%; ABTS %inhibition ([4]; 500 μg/mL): 75.19 ± 2.59%; ABTS %inhibition ([4]; 1000 μg/mL): 81.28 ± 2.17%
COc1ccc2c3c1O[C@H]1C[C@@H](O)C=C[C@@]31CCN(C)C2 [Galantamine, reference compound]																64.9 ± 0.87	67.9 ± 0.98		81.83 ± 0.37	89.64 ± 0.62	
S=C(Nc1ccccn1)NC1CCCCC1 [Compound 1, 1-cyclohexyl-3-(pyridin-2-yl) thiourea]	9	115 µM and 117 µM	62.44 ± 0.58	67.6 ± 1.73	74.3 ± 2.15	81.7 ± 1.34	88.6 ± 1.12	63.02	48.57 ± 2.03	54.32 ± 1.89	63.01 ± 1.65	75.63 ± 2.60	85.10 ± 1.45	9.5	10	65.8 ± 1.5	71.6 ± 1.06	76.42 ± 0.43	84.2 ± 1.83	91.76 ± 0.71	IC50 [3]: 96 µM; zone of inhibition at 6250 µg/mL (S. flexenari): 8.5 mm; ABTS IC50 [4]: 67.08 µg/mL; ABTS %inhibition ([4]; 62.5 μg/mL): 47.65 ± 1.74%; ABTS %inhibition ([4]; 125 μg/mL): 54.45 ± 0.96%; ABTS %inhibition ([4]; 250 μg/mL): 63.59 ± 2.50%; ABTS %inhibition ([4]; 500 μg/mL): 72.20 ± 1.90%; ABTS %inhibition ([4]; 1000 μg/mL): 84.81 ± 1.17%
Cc1cccnc1NC(=S)Nc1ccccc1 [Compound 5, 1-(3-methylpyridin-2-yl)-3-phenylthiourea]	9.5	1410 µM	38.7 ± 0.68	44.7 ± 1.25	48 ± 0.75	56.3 ± 1.06	63.3 ± 0.98	37.50	62.44 ± 0.58	67.56 ± 1.73	74.31 ± 2.15	81.65 ± 1.34	88.58 ± 1.12	10.5	11.5	31.9 ± 0.48	39 ± 0.48	47.9 ± 0.96	61.6 ± 1.34	69.6 ± 1.12	zone of inhibition at 6250 µg/mL (S. flexenari): 10.5 mm; ABTS IC50 [4]: 44.60 µg/mL; ABTS %inhibition ([4]; 62.5 μg/mL): 67.80 ± 1.50%; ABTS %inhibition ([4]; 125 μg/mL): 72.56 ± 1.06%; ABTS %inhibition ([4]; 250 μg/mL): 77.42 ± 0.43%; ABTS %inhibition ([4]; 500 μg/mL): 85.23 ± 1.83%; ABTS %inhibition ([4]; 1000 μg/mL): 92.76 ± 0.71%

— paper PMC11141368, “Antioxidant, antibacterial, enzyme inhibition and fluorescence characteristics of unsymmetrical thiourea derivatives” (Heliyon, 2024)
